In US20230330093A1, “APPLICATION OF NITROGEN-CONTAINING SATURATED HETEROCYCLIC COMPOUND” (SHANGHAI PHARMACEUTICALS HOLDING CO., LTD., priority 2020, published 2023):

Tested on: cynomolgus monkeys
Assay: 4-week safety study: serum biochemistry
Assay type: in vivo
Procedure: […] (1) Hematological and coagulation index examination were performed using a Bayer ADVIA2120 (Germany) and a Sysmex CA-1500 (Japan). (2) The serum biochemical examination was assessed using a HITACHI 7080 automated analyzer (Japan) and an Easylyte PLUS electrolyte analyzer (MEDICA, America). (3) The 24-h pooled urine of each animal was collected by a tray under each cage. Urinalysis was carried out using Uritest-300 (China). (4) The 24-h pooled faeces of each monkey were collected by a tray under each cage. Fecal occult blood was detected. (5) ACCESS 2 Chemiluminescence immunoassay was used for myocardial troponin (TropI, non-GLP) test.

Structure (SMILES): COC(=O)NCCCn1nc([C@@H](C)N(C(=O)[C@H]2CNCCO2)C2CC2)c2ccc(C)nc21 [compound of Formula I]
- BUN (Female, 20 mg/kg, d0): 6.1 ± 1.1 mmol/L
- CHOL (Female, 20 mg/kg, d0): 3.0 ± 0.5 mmol/L
- CPK (Female, 20 mg/kg, d0): 158.4 ± 63.5 U · L^−1
- CREA (Female, 20 mg/kg, d0): 59 ± 4 µM
- K (Female, 20 mg/kg, d0): 5.0 ± 0.3 mmol/L
- Na (Female, 20 mg/kg, d0): 149.4 ± 3.5 mmol/L
- BUN (Female, 20 mg/kg, d14): 5.4 ± 0.9 mmol/L
- CHOL (Female, 20 mg/kg, d14): 2.8 ± 0.2 mmol/L
- CPK (Female, 20 mg/kg, d14): 151.6 ± 45.2 U · L^−1
- CREA (Female, 20 mg/kg, d14): 52.4 ± 3.8 µM
- K (Female, 20 mg/kg, d14): 5.2 ± 0.2 mmol/L
- Na (Female, 20 mg/kg, d14): 149.6 ± 1.7 mmol/L
- BUN (Female, 20 mg/kg, d26): 6.3 ± 1.1 mmol/L
- CHOL (Female, 20 mg/kg, d26): 2.7 ± 0.3 mmol/L
- CPK (Female, 20 mg/kg, d26): 149.4 ± 58.7 U · L^−1
- CREA (Female, 20 mg/kg, d26): 51.2 ± 3.6 µM
- K (Female, 20 mg/kg, d26): 4.9 ± 0.5 mmol/L
- Na (Female, 20 mg/kg, d26): 149.2 ± 4.3 mmol/L
- BUN (Female, 20 mg/kg, d 56): 6.0 ± 0.6 mmol/L
- CHOL (Female, 20 mg/kg, d 56): 3.0 ± 0.1 mmol/L
- CPK (Female, 20 mg/kg, d 56): 129.0 ± 5.7 U · L^−1
- CREA (Female, 20 mg/kg, d 56): 51.5 ± 4.9 µM
- K (Female, 20 mg/kg, d 56): 5.0 ± 0.5 mmol/L
- Na (Female, 20 mg/kg, d 56): 147.2 ± 4.2 mmol/L
- BUN (Female, 100 mg/kg, d0): 5.9 ± 1.1 mmol/L
- CHOL (Female, 100 mg/kg, d0): 3.8 ± 1.3 mmol/L
- CPK (Female, 100 mg/kg, d0): 187.6 ± 75.0 U · L^−1
- CREA (Female, 100 mg/kg, d0): 55.2 ± 4.7 µM
- K (Female, 100 mg/kg, d0): 4.5 ± 0.4 mmol/L
- Na (Female, 100 mg/kg, d0): 149.4 ± 1.9 mmol/L
- BUN (Female, 100 mg/kg, d14): 6.4 ± 0.8 mmol/L
- CHOL (Female, 100 mg/kg, d14): 2.9 ± 0.6 mmol/L
- CPK (Female, 100 mg/kg, d14): 247.2 ± 89.5 U · L^−1
- CREA (Female, 100 mg/kg, d14): 55.2 ± 3.8 µM
- K (Female, 100 mg/kg, d14): 4.7 ± 0.5 mmol/L
- Na (Female, 100 mg/kg, d14): 149.8 ± 3.7 mmol/L
- BUN (Female, 100 mg/kg, d26): 6.4 ± 1.6 mmol/L
- CHOL (Female, 100 mg/kg, d26): 3.1 ± 0.5 mmol/L
- CPK (Female, 100 mg/kg, d26): 195.0 ± 96.8 U · L^−1
- CREA (Female, 100 mg/kg, d26): 51.2 ± 3.6 µM
- K (Female, 100 mg/kg, d26): 4.8 ± 0.6 mmol/L
- Na (Female, 100 mg/kg, d26): 149.6 ± 3.8 mmol/L
- BUN (Female, 100 mg/kg, d 56): 5.2 ± 0.2 mmol/L
- CHOL (Female, 100 mg/kg, d 56): 3.6 ± 0.2 mmol/L
- CPK (Female, 100 mg/kg, d 56): 112.0 ± 12.7 U · L^−1
- CREA (Female, 100 mg/kg, d 56): 54.5 ± 4.9 µM
- K (Female, 100 mg/kg, d 56): 4.2 ± 0.2 mmol/L
- Na (Female, 100 mg/kg, d 56): 147.9 ± 1.3 mmol/L
- BUN (Female, 450 mg/kg, d0): 6.1 ± 0.7 mmol/L
- CHOL (Female, 450 mg/kg, d0): 3.3 ± 0.4 mmol/L
- CPK (Female, 450 mg/kg, d0): 163.2 ± 56.2 U · L^−1
- CREA (Female, 450 mg/kg, d0): 54.4 ± 7.1 µM
- K (Female, 450 mg/kg, d0): 5.1 ± 0.5 mmol/L
- Na (Female, 450 mg/kg, d0): 150.1 ± 2.2 mmol/L
- BUN (Female, 450 mg/kg, d14): 14.3 ± 11.8 mmol/L
- CHOL (Female, 450 mg/kg, d14): 2.4 ± 0.9 mmol/L
- CPK (Female, 450 mg/kg, d14): 815.2 ± 1316.0 U · L^−1
- CREA (Female, 450 mg/kg, d14): 162 ± 204 µM
- K (Female, 450 mg/kg, d14): 5.5 ± 0.2 mmol/L
- Na (Female, 450 mg/kg, d14): 144.6 ± 3.5 mmol/L
- BUN (Female, 450 mg/kg, d26): 9.7 ± 1.0 mmol/L
- CHOL (Female, 450 mg/kg, d26): 2.0 ± 0.7 mmol/L
- CPK (Female, 450 mg/kg, d26): 328.5 ± 259.1 U · L^−1
- CREA (Female, 450 mg/kg, d26): 64.3 ± 7.1 µM
- K (Female, 450 mg/kg, d26): 5.3 ± 0.4 mmol/L
- Na (Female, 450 mg/kg, d26): 145.0 ± 2.6 mmol/L
- BUN (Female, 450 mg/kg, d 56): 5.6 ± 0.6 mmol/L
- CHOL (Female, 450 mg/kg, d 56): 3.1 ± 0.3 mmol/L
- CPK (Female, 450 mg/kg, d 56): 290.0 ± 176.8 U · L^−1
- CREA (Female, 450 mg/kg, d 56): 57 ± 2.8 µM
- K (Female, 450 mg/kg, d 56): 4.8 ± 0.2 mmol/L
- Na (Female, 450 mg/kg, d 56): 145.7 ± 0.9 mmol/L
- BUN (Male, 20 mg/kg, d0): 5.1 ± 0.9 mmol/L
- CHOL (Male, 20 mg/kg, d0): 2.9 ± 0.5 mmol/L
- CPK (Male, 20 mg/kg, d0): 156.6 ± 76.3 U · L^−1
